Reference: article PMC10824666 (Nature Cancer, 2023)
Read-outs that look alike come from different tables or passages of the source.

Experiments:
[1] = target: mTOR (Homo sapiens, UniProt P42345); experiment: biochemical; design: Eurofins DiscoverX kinase panel, competitive binding assay at 1 uM, percent of DMSO control; conditions: competitive binding, percent of DMSO control
Summary of the method: (§1)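 Competitive binding assay across a 96-kinase panel with KIF18A compounds at 1 µM; values given as percentage of control (POC), single experiment.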

[2] = target: T1, TAOK2 (Homo sapiens, UniProt Q9UL54); experiment: biochemical; design: Eurofins DiscoverX kinase panel, competitive binding assay at 1 uM, percent of DMSO control; conditions: competitive binding, percent of DMSO control
T1 sequence (Q9UL54 1-1235): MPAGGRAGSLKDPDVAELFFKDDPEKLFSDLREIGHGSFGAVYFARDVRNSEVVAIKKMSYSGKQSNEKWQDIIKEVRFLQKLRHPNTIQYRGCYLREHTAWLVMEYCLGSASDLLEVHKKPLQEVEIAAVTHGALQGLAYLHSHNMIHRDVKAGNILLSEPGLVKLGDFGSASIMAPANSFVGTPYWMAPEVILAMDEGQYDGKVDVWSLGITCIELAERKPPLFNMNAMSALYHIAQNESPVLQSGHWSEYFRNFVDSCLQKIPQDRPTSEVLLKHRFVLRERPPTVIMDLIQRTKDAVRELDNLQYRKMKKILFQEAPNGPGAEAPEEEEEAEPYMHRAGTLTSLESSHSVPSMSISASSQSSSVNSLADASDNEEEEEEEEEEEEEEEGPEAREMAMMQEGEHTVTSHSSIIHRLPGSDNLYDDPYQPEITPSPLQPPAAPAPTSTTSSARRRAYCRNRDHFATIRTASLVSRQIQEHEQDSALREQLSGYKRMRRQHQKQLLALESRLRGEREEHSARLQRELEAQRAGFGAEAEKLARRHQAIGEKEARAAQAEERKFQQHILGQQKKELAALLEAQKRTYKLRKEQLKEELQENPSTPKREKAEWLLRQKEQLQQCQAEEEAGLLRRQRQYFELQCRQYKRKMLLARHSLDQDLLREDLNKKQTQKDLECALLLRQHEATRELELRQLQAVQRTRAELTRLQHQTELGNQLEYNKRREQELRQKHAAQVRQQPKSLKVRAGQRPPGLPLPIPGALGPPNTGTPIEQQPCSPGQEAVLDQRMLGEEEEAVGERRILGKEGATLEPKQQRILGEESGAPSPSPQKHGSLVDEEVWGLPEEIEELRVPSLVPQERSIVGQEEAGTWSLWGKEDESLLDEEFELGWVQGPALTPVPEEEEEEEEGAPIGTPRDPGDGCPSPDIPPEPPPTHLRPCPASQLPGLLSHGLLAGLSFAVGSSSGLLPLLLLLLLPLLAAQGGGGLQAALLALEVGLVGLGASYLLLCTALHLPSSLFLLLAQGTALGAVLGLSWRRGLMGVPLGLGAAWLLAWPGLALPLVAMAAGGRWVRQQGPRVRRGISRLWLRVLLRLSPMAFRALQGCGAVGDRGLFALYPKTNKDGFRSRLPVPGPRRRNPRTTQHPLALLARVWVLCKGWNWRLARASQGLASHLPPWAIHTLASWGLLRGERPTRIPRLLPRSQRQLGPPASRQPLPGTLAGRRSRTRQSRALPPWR
Summary of the method: as §1

[3] = read-out: Kinome Profiling performed by Eurofins DiscoverX / AM-1882, 1.0 µM / POC
[4] = read-out: Kinome Profiling performed by Eurofins DiscoverX / AM-0277, 1.0 µM / POC
[5] = read-out: Kinome Profiling performed by Eurofins DiscoverX / AM-5308, 1.0 µM / POC

CC(C)(C)NS(=O)(=O)c1cccc(NC(=O)c2ccc(S(=O)(=O)NC(C)(C)C)cc2N2CCC3(CC2)CC3)c1 [AM-1882]
remaining activity at 1 µM [1, 3]: 98.5%
remaining activity at 1 µM [2, 3]: 81.5%

CC(C)(CO)Nc1ccc(C(=O)Nc2cccc(S(=O)(=O)C3CCCC3)c2)c(N2CCC3(CC2)CC3)n1 [AM-0277]
remaining activity at 1 µM [1, 4]: 100%
remaining activity at 1 µM [2, 4]: 98%

C[C@@H]1CN(c2cccc(NC(=O)c3ccc(NS(=O)(=O)CCO)cc3N3CCC4(CC3)CC4)n2)CCO1 [AM-5308]
remaining activity at 1 µM [1, 5]: 100%
remaining activity at 1 µM [2, 5]: 81%
